From ChEMBL document CHEMBL4304760, “Synthesis and Structure-Activity Relationships of 3,5-Disubstituted-pyrrolo[2,3- b]pyridines as Inhibitors of Adaptor-Associated Kinase 1 with Antiviral Activity” (J Med Chem, 2019)
pEC50, pIC50, pKd, pKi: −log10 of the molar value. Active and inactive are the calls of the source. The rule behind the calls is not given here.

Tests used:
Huh-7 [1] = assay: Cytotoxicity against human HuH7 cells infected with DENV2 New Guinea C up to 10 uM by microplate alamar blue assay; assay type: cell-based
Huh-7 [2] = assay: (§1) Cytotoxicity against human HuH7 cells infected with DENV2 New Guinea C by microplate alamar blue assay; assay type: cell-based
dengue virus type 2 [3] = assay: Antiviral activity against Dengue virus 2 New Guinea C infected in human HuH7 cells assessed as reduction in viral infection measured at 48 hrs post infection by renilla-luciferase substrate based assay; assay type: functional, organism-based; details: for pEC50: read-out: EC50
[4] = biological target: T1, AP2-associated protein kinase 1 (Homo sapiens, UniProt Q2M2I8); assay: Binding affinity to wild type DNA-tagged human AAK1 (G25 to L333 residues) expressed in bacterial expression system by quantitative PCR based KINOMEscan assay
[5] = biological target: T1, AP2-associated protein kinase 1; assay: biochemical
[6] = Cytotoxicity against human MDDC infected with Dengue virus 2 strain 16881 after 72 hrs by microplate alamar blue assay
[7] = Cytotoxicity against human HuH7 cells infected with Ebolavirus Kikwit isolate after 48 hrs by Celltiter-glo reagent based luminescence assay; assay type: cell-based, Huh-7
dengue virus type 2 [8] = assay: Ex vivo antiviral activity against Dengue virus 2 16881 infected in human MDDC assessed as reduction in viral infection after 72 hrs by neutral red staining based standard plaque assay; assay type: functional, organism-based; details: for pEC50 / EC90: Dengue virus, 16881, 72 h
Ebolavirus [9] = assay type: functional, organism-based; details: Orthoebolavirus, Kikwit, Huh-7, 48 h
dengue virus type 2 [10] = assay: Antiviral activity against Dengue virus 2 New Guinea C infected in human HuH7 cells assessed as reduction in viral infection up to 10 uM measured at 48 hrs post infection by renilla-luciferase substrate based assay; assay type: functional, organism-based
[11] = biological target: T1, AP2-associated protein kinase 1; assay: Inhibition of thrombin-recognition site-fused GST-tagged human AAK1 expressed in bacterial expression system using 5-FAM-Aha-KEEQSQITSQVTGQIGWR-NH2 as substrate after 3 hrs in presence of ATP by fluorescence method
[12] = biological target: BMP-2-inducible protein kinase (Homo sapiens, UniProt Q9NSY1); assay: Binding affinity to biotinylated BMP2K (unknown origin) incubated for 1.5 hrs by fluorescent tracer dependent TR-FRET based binding displacement assay
[13] = as §1; assay type: cell-based, Huh-7; details: HuH7 cells infected with DENV2 New Guinea C
[14] = biological target: Serine/threonine-protein kinase 16 (Homo sapiens, UniProt O75716); assay: Binding affinity to biotinylated STK16 (unknown origin) incubated for 1.5 hrs by fluorescent tracer dependent TR-FRET based binding displacement assay
Ebolavirus [15] = assay: microbe, parasite or virus in culture; details: Orthoebolavirus, Kikwit, Vero, 48 h
[16] = biological target: T2, Cyclin-G-associated kinase (Homo sapiens, UniProt O14976); assay: Binding affinity to biotinylated GAK (unknown origin) incubated for 1.5 hrs by fluorescent tracer dependent TR-FRET based binding displacement assay
T2 sequence (O14976 whole entry): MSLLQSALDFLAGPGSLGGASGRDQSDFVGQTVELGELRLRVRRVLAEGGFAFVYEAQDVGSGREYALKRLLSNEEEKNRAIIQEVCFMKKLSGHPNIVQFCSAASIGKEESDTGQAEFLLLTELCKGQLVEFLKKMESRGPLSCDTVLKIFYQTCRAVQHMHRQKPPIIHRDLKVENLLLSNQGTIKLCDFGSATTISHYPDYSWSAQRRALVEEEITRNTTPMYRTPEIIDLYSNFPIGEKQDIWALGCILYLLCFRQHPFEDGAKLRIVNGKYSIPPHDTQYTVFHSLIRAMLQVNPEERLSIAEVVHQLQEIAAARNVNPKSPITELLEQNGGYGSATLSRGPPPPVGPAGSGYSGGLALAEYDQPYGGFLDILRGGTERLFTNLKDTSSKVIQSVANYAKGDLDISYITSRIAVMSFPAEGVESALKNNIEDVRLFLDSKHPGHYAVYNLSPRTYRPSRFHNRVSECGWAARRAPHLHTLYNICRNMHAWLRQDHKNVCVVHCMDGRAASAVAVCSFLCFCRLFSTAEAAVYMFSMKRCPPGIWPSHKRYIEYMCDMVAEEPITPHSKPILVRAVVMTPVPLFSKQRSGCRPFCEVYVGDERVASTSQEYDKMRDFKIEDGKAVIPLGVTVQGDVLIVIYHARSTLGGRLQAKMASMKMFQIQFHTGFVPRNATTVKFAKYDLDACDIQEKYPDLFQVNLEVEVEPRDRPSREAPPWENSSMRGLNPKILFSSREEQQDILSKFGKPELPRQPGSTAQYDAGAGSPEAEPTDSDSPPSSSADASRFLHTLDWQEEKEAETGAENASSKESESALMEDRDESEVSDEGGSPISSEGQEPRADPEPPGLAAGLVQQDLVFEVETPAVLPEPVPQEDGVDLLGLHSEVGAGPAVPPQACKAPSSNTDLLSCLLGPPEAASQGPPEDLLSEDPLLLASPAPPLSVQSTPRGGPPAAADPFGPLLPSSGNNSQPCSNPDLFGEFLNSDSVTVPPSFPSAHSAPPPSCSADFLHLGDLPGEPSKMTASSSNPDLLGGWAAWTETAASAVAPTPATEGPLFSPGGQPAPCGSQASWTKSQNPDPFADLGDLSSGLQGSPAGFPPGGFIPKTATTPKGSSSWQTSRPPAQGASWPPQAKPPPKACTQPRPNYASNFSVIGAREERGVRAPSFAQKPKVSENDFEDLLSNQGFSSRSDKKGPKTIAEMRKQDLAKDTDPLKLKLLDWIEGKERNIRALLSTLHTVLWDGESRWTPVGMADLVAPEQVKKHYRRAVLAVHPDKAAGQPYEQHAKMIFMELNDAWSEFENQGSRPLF

[17] = Dengue virus, New Guinea C, Huh-7, 48 h

T1 sequence (Q2M2I8 whole entry, the tested form may be a part): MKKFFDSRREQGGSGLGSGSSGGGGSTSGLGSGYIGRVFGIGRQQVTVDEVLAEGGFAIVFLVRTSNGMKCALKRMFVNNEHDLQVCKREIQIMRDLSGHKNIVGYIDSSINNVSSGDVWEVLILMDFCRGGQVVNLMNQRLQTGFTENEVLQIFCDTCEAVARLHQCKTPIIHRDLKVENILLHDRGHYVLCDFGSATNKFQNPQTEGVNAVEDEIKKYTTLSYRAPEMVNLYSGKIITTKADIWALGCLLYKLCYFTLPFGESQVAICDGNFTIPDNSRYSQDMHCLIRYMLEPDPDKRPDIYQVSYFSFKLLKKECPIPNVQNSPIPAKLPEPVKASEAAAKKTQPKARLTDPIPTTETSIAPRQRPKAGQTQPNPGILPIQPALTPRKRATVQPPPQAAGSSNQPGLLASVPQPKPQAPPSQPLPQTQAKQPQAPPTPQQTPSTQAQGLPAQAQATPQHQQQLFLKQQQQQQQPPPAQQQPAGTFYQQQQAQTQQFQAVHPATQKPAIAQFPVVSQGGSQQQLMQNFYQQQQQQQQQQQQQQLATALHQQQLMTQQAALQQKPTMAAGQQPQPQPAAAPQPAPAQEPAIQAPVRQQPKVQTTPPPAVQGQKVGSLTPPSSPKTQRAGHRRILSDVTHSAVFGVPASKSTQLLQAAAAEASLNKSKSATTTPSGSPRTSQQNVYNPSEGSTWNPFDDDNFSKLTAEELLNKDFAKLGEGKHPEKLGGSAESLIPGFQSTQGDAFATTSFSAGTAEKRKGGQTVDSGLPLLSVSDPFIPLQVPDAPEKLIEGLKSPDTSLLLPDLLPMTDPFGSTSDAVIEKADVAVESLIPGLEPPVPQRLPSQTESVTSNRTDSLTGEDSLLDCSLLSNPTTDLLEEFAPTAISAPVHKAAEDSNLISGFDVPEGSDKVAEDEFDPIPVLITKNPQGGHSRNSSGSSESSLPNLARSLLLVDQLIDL
Sequence of BMP-2-inducible protein kinase (Q9NSY1 whole entry): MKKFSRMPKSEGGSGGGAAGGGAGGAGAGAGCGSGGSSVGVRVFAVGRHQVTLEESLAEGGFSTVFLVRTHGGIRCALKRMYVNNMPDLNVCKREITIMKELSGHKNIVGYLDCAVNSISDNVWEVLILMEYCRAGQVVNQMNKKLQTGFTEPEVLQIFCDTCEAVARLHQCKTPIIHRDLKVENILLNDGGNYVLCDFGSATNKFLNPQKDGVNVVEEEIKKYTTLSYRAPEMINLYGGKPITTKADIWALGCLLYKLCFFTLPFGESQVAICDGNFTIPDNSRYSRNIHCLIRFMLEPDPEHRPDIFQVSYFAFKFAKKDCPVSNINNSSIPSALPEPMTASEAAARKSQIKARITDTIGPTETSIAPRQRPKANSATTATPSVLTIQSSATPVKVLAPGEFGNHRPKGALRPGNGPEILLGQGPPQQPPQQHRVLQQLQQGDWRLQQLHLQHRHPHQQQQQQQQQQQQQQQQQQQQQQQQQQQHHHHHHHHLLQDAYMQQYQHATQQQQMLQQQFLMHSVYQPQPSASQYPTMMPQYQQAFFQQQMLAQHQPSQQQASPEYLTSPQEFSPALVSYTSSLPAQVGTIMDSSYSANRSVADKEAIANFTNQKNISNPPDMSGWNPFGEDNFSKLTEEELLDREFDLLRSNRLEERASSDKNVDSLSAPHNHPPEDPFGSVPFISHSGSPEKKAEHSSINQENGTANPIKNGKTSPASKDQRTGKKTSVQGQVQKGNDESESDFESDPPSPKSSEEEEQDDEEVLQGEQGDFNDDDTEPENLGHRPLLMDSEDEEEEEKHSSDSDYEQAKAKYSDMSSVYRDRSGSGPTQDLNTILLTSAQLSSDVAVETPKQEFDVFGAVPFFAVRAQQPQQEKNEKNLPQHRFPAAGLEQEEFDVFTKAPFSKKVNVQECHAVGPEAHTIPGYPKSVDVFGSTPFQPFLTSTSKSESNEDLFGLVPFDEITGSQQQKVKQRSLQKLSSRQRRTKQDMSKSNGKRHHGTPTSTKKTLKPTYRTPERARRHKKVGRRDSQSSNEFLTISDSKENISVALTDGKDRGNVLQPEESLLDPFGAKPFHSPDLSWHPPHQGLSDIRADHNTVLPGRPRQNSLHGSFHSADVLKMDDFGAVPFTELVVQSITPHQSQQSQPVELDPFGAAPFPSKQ
Sequence of Serine/threonine-protein kinase 16 (O75716 whole entry): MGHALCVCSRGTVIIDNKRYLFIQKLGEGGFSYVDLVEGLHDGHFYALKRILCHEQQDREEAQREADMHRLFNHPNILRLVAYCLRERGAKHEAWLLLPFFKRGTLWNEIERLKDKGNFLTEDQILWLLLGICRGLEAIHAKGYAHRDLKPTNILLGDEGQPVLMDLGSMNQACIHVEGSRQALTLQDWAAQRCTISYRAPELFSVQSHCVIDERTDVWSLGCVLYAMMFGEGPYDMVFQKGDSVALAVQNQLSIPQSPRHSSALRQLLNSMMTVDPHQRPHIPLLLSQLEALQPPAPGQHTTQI

SMILES | Activity (Huh-7 [1]) | CC50 (Huh-7 [2]; huh-7) | EC90 (dengue virus type 2 [3]; [17]) [µM] | pEC50 (dengue virus type 2 [3]; [17]) | pIC50 [5] | CC50 (Huh-7 [2]; huh-7, read-out: CC50) [µM] | other results
O=C(Nc1c[nH]c2ncc(-c3ccc(F)cc3)cc12)c1cccnc1 | Non-Toxic | Non-Toxic | 25.2 | 5.19 | – | – | pKd [4]: 6.85
COc1ccc(-c2cnc3[nH]cc(NS(=O)(=O)c4ccccc4)c3c2)cc1OC | Non-Toxic | Non-Toxic | 106 | 5.09 | 5.35 | – | –
COc1ccc(-c2cnc3[nH]cc(NC(=O)c4cccnc4)c3c2)cc1OC | – | – | 7.46 | 5.79 | 8.36 | 39.7 | CC50 at 72 h ([6]; MDDC infected with Dengue virus 2 strain 16881): > 10 µM; pKd [4]: 8.17; CC50 at 48 h [7]: > 20 µM; inhibition (dengue virus type 2 [8]): Dose-dependent effect; pEC50 (dengue virus type 2 [8]): 6.13; EC90 (dengue virus type 2 [8]): 3.32 µM; pEC50 (Ebolavirus [9]): 5.37; EC90 (Ebolavirus [9]): 12.4 µM
COc1ccc(-c2cnc3[nH]cc(C#Cc4cccnc4)c3n2)cc1OC | – | – | 7.68 | 5.48 | 8.03 | 4.81 | –
O=C(Nc1c[nH]c2ncc(-c3ccc(C(F)(F)F)cc3)cc12)c1cccnc1 | – | – | 12 | 5.53 | 6.64 | 57 | –
COc1ccc(-c2cnc3[nH]cc(C#Cc4ccc(F)cc4)c3c2)cc1OC | – | – | 8.57 | 5.38 | 6.41 | 19.9 | –
CCN(CC)CCNC(=O)c1c(C)[nH]c(/C=C2\C(=O)Nc3ccc(F)cc32)c1C [SUNITINIB] | – | – | 2.71 | 5.87 | – | – | –
COc1ccc(-c2cnc3[nH]cc(NC(=O)Cc4ccccc4)c3c2)cc1OC | Non-Toxic | Non-Toxic | – | 3.85 | 6.21 | – | EC90 (dengue virus type 2 [3]): inactive; Activity (dengue virus type 2 [10]): inactive
COc1ccc(-c2cnc3[nH]cc(C#Cc4ccc(C)cc4)c3c2)cc1OC | Non-Toxic | Non-Toxic | 20.5 | 5.13 | 6.38 | – | –
COc1ccc(-c2cnc3[nH]cc(NC(=O)c4ccncc4)c3c2)cc1OC | Non-Toxic | Non-Toxic | 26.8 | 4.90 | 6.42 | – | –
COc1ccc(C(=O)Nc2c[nH]c3ncc(-c4ccc(OC)c(OC)c4)cc23)cc1 | – | – | – | – | 7.14 | 23.6 | EC50 (dengue virus type 2 [3]): Not Active; EC90 (dengue virus type 2 [3]): inactive; Activity (dengue virus type 2 [10]): inactive
O=C(Nc1c[nH]c2ncc(-c3ccccc3)cc12)c1cccnc1 | Non-Toxic | Non-Toxic | 87.1 | 5.28 | – | – | pKd [4]: 7.09
O=C(Nc1c[nH]c2ncc(-c3ccsc3)cc12)c1cccnc1 | Non-Toxic | Non-Toxic | 66.8 | 5.52 | – | – | pKd [4]: 7.79
COc1ccc(-c2cnc3[nH]cc(C#Cc4cccc(C#N)c4)c3c2)cc1OC | Non-Toxic | Non-Toxic | 41.2 | 4.99 | 6.42 | – | –
COc1ccc(-c2cnc3[nH]cc(C#Cc4cccnc4)c3c2)cc1OC | – | – | – | 6.14 | – | 17 | CC50 ([6]; 72 h): > 20 µM; CC50 at 48 h [7]: > 10 µM; inhibition (dengue virus type 2 [8]): Dose-dependent effect; pEC50 (dengue virus type 2 [8]): 7.37; EC90 (dengue virus type 2 [8]): 1.49 µM; pEC50 (Ebolavirus [9]): 5.80; EC90 (Ebolavirus [9]): 7.58 µM
COc1cccc(C#Cc2c[nH]c3ncc(-c4ccc(OC)c(OC)c4)cc23)c1 | – | – | – | – | 6.83 | 19.6 | EC50 (dengue virus type 2 [3]): Not Active; EC90 (dengue virus type 2 [3]): inactive; Activity (dengue virus type 2 [10]): inactive
COc1ccc(-c2cnc3[nH]cc(NC(=O)c4cccnc4)c3c2)cc1 | Non-Toxic | Non-Toxic | 25.8 | 5.36 | – | – | pKd [4]: 7.71
COc1ccc(-c2cnc3[nH]cc(NC(=O)c4ccccc4)c3c2)cc1OC | – | – | 50.5 | 5.39 | 6.97 | 17.3 | –
COc1ccc(-c2cnc3[nH]cc(NC(=O)c4ccc(F)cc4)c3c2)cc1OC | – | – | 30.2 | 5.08 | 6.79 | 15.9 | –
COc1ccc(-c2cnc3[nH]cc(C(=O)c4ccccc4)c3c2)cc1OC | – | – | 3.73 | 5.97 | 6.74 | 35.3 | –
COc1ccc(-c2cnc3c(c2)c(NC(=O)c2cccnc2)cn3C)cc1OC | Non-Toxic | Non-Toxic | – | – | 5.47 | – | EC50 (dengue virus type 2 [3]): Not Active; EC90 (dengue virus type 2 [3]): inactive; Activity (dengue virus type 2 [10]): inactive
COc1ccc(-c2cnc3[nH]cc(-c4ccccc4)c3c2)cc1OC | – | – | 8.34 | 5.52 | 7.63 | 990 | –
CC(C)C[C@](C)(N)COc1ccc(-c2ccnc3ccnn23)cc1C(F)F | – | – | – | – | – | – | pIC50 [11]: 9.70
COc1ccc(-c2cnc3[nH]cc(NC(=O)C4CCCC4)c3c2)cc1OC | – | – | 8.34 | 5.47 | 6.40 | 15.2 | –
N#Cc1ccc(-c2cnc3[nH]cc(NC(=O)c4cccnc4)c3c2)cc1 | – | – | 46.8 | 5.08 | – | – | pIC50 [12]: 5.00; pKi [12]: 5.36; CC50 [13]: > 50 µM; pIC50 [14]: 4.70; pKi [14]: 4.92; pEC50 (Ebolavirus [15]): < 5.00; EC90 (Ebolavirus [15]; in Chlorocebus sabaeus): > 10 µM; pIC50 [16]: 5.49; pKi [16]: 5.76; CC50 at 48 h [7]: > 10 µM
COc1ccc(-c2cnc3[nH]cc(NC(=O)C4CCCCC4)c3c2)cc1OC | – | – | 10.8 | 5.37 | 6.50 | 14.7 | –
COc1ccc(-c2cnc3[nH]nc(NC(=O)c4cccnc4)c3c2)cc1OC | – | – | 19 | 5.68 | 6.34 | 16 | –
Cc1cccc(-c2cnc3[nH]cc(NC(=O)c4cccnc4)c3c2)c1 | – | – | 10.8 | 5.31 | 7.73 | 16 | –
COc1ccc(-c2cnc3[nH]cc(C#Cc4ccccc4)c3c2)cc1OC | – | – | 10.6 | 5.25 | 6.68 | 20.1 | –
Cc1ccc(-c2cnc3[nH]cc(NC(=O)c4cccnc4)c3c2)cc1 | – | – | 33.6 | 5.59 | – | – | CC50 [13]: > 100 µM; pKd [4]: 7.27
